This is an account of results in patent publication US8455451B2, “2'-fluoro substituted carba-nucleoside analogs for antiviral treatment” (Gilead Sciences, Inc., priority 2009, dated 2013).

In series [1] the target is T1, wild type HCV Δ21 NS5b polymerase (Hepatitis C virus genotype 1b, UniProt Q9WMX2).
T1 construct: 75 nM HCV Δ21 NS5b polymerase
In words: HCV IC50 determination, NS5b polymerase assay, wild type enzyme. It is filed as biochemical. As for the experimental part:
(§1) Assay Protocol: Either wild type or S282T (Migliaccio, et al, J. Biol. Chem. 2003, 49164-49170; Klumpp, et al., J. Biol. Chem. 2006, 3793-3799) mutant polymerase enzyme was used in this assay. NS5b polymerase assay (40 μL) was assembled by adding 28 μL, polymerase mixture (final concentration: 50 mM Tris-HCl at pH 7.5, 10 mM KCL, 5 mM MgCl2, 1 mM DTT, 10 mM EDTA, 4 ng/μL of RNA template, and 75 nM HCV Δ21 NS5b polymerase) to assay plates followed by 4 μL of compound dilution. The polymerase and compound were pre-incubated at 35° C. for 10 minute before the addition of 8 μL of nucleotide substrate mixture (33P-α-labeled competing nucleotide at KM and 0.5 mM of the remaining three nucleotides). The assay plates were covered and incubated at 35° C. for 90 min. Reactions were then filtered through 96-well DEAE-81 filter plates via vacuum. The filter plates were then washed under vacuum with multiple volumes of 0.125 M NaHPO4, water, and ethanol to remove unincorporated label. Plates were then counted on TopCount to assess the level of product synthesis over background controls. The IC50 value is determined using Prism fitting program.

Series [2] deals with T2, S282T mutant HCV Δ21 NS5b polymerase (Hepatitis C virus genotype 1b, UniProt Q9WMX2, S2701T).
T2 construct: 75 nM HCV Δ21 NS5b polymerase
In words: biochemical. The settings on record: for fold shift (S282T IC50 vs WT IC50): Note of Table II. How it is done:
as §1

For series [3], the system named is HCV replicon cells. In words: HCV EC50 determination, replicon luciferase assay. It is filed as cell-based. As to conditions: Hepatitis C virus, 72 h. As for the experimental part:
Replicon cells were seeded in 96-well plates at a density of 8×10^3 cells per well in 100 μL of culture medium, excluding Geneticin. Compound was serially diluted in 100% DMSO and then added to the cells at a 1:200 dilution, achieving a final concentration of 0.5% DMSO and a total volume of 200 μL. Plates were incubated at 37° C. for 3 days, after which culture medium was removed and cells were lysed in lysis buffer provided by Promega's luciferase assay system. Following the manufacturer's instruction, 100 μL of luciferase substrate was added to the lysed cells and luciferase activity was measured in a TopCount luminometer.
On the technique in general: A replicon is a self-replicating genome or part of one, used to study replication in cells.

Series [4] deals with Huh-luc/neo replicon cells. Nature of the series: Metabolism study: intracellular triphosphate analog concentration. Format: in vitro ADME. The settings on record: PD-A-8b to TP-8a versus B-7 to TP-3, Huh-luc/neo replicon cells. The text has this: Applicants have observed that monophosphate prodrugs of nucleoside analogs with a nitrogen at the X^1 position can have enhanced activity over their counterparts with a carbon at the X^1 position. This difference in activity correlates to the amount of the active triphosphate analogs of the compounds in cells. This can be quantified by a metabolism study which quantifies the intracellular concentration of the triphosphate analogs. The higher intracellular concentration of the triphosphate metabolite correlates to the prodrug with enhanced activity.
Huh-luc/neo replicon cells containing HCV genotype 1b subgenomic replicons were maintained in Dulbecco's modified eagle medium containing glutamax supplemented with 10% heat inactivated fetal bovine serum, penicillin-streptomycin, and G418 disulphate salt solution. Cells were transferred to twelve well tissue culture plates by trypsonization and grown to confluency (0.88×10^6 cells/well). Cells were treated for 24 hours with 10 μM nucleoside, or 10 μM prodrug. After 24 hours, cells were washed 2 times with 2.0 mL ice cold 0.9% sodium chloride saline. […] Intracellular levels of the nucleoside triphosphates were quantified based on authentic standard curves by liquid chromatography coupled to tandem mass spectrometry.

For series [5], the target named is T1, wild type HCV Δ21 NS5b polymerase. As to conditions: read-out: WT IC50, value taken from the source in the Note column; cited from earlier work.
Series [6] concerns the target T2, S282T mutant HCV Δ21 NS5b polymerase. As to conditions: value taken from the source in the Note column; cited from earlier work.
Setting [7] is: replicon cells, 3 days incubation, luciferase readout, read-out: EC50.

Where two headings read alike, the source gives them in different places.

In the case of `C[C@@]1(F)[C@H](O)[C@@H](COP(=O)(O)OP(=O)(O)OP(=O)(O)O)O[C@H]1c1ccc2c(N)ncnn12`, the IC50 (usually the point on the concentration scale where inhibition reaches its midpoint) in series [1] amounted to 0.034 µM.

The compound `C[C@@]1(F)[C@H](O)[C@@H](COP(=O)(O)OP(=O)(O)OP(=O)(O)O)O[C@H]1c1cnc2c(N)ncnn12` yielded an IC50 in series [1] of 0.3 µM. For the same compound, in series [2], inhibition was half-maximal at 1.6 µM (IC50) and the “fold shift (S282T IC50 vs WT IC50)” value is on record as “(5.3 fold shift)”.

For `CC(C)OC(=O)OCOP(=O)(OCOC(=O)OC(C)C)OC[C@H]1O[C@@](C#N)(c2ccc3c(N)ncnn23)[C@](C)(F)[C@@H]1O` [Compound 10], the EC50 (as a rule, the concentration giving half of the maximal effect) in series [3] (setting [7]) was 6.5 to 8 µM.

Regarding `C[C@@]1(F)[C@H](O)[C@@H](COP(=O)(O)NCCc2c[nH]c3ccccc23)O[C@@]1(C#N)c1ccc2c(N)ncnn12` [Compound 22], the EC50 in series [3] (setting [7]) is 31 to 45 µM.

For `C[C@@]1(F)[C@@H]2OP(=O)(O)OC[C@H]2O[C@@]1(C#N)c1ccc2c(N)ncnn12` [Compound 23], the EC50 in series [3] (setting [7]) fell in the range of 39.4 to 40.3 µM.

`CC(C)OP1(=O)OC[C@H]2O[C@@](C#N)(c3ccc4c(N)ncnn34)[C@](C)(F)[C@@H]2O1` (stereo partly shown) [Compound 24]: in series [3] (setting [7]), the EC50 lay within 40.3 to 70.5 µM.

Take `CCCCCCCOC(=O)[C@H](C)NP1(=O)OC[C@H]2O[C@@](C#N)(c3ccc4c(N)ncnn34)[C@](C)(F)[C@@H]2O1` (stereo partly shown) [Compound 25]: the EC50 in series [3] (setting [7]) lay within 9.7 to 10 µM.

`CC(C)(C)C(=O)SCCOP(=O)(OCCSC(=O)C(C)(C)C)OC[C@H]1O[C@@H](c2cnc3c(N)nc(N)nn23)[C@](C)(F)[C@@H]1O` [Compound A-1]: the EC50 in series [3] (setting [7]) stood at 23 µM.

For the compound `CCOC(=O)[C@H](C)NP(=O)(OC[C@H]1O[C@@](C#N)(c2ccc3c(N)ncnn23)[C@](C)(F)[C@@H]1O)Oc1ccccc1` (stereo partly shown) [Compound B-1], in series [3] (setting [7]), the EC50 was 1.4 to 4.3 µM.

For `CC(C)OC(=O)[C@H](C)NP(=O)(OC[C@H]1O[C@@](C#N)(c2ccc3c(N)ncnn23)[C@](C)(F)[C@@H]1O)Oc1ccccc1` (stereo partly shown) [Compound B-3], the EC50 in series [3] (setting [7]) lay within 16 to 28 µM.

In the case of `CCC(CC)COC(=O)C(C)(C)NP(=O)(OC[C@H]1O[C@@](C#N)(c2ccc3c(N)ncnn23)[C@](C)(F)[C@@H]1O)Oc1ccccc1` (stereo partly shown) [Compound B-4], the EC50 in series [3] (setting [7]) lay in the range of 8.4 to 19 µM.

With `CCOC(=O)CNP(=O)(OC[C@H]1O[C@@](C#N)(c2ccc3c(N)ncnn23)[C@](C)(F)[C@@H]1O)Oc1ccccc1` (stereo partly shown) [Compound B-5], the EC50 in series [3] (setting [7]) was in the range of 1.93 to 25.5 µM.

For the compound `CCOC(=O)[C@H](C)NP(=O)(OC[C@H]1O[C@@](C#N)(c2ccc3c(N)ncnn23)[C@](C)(F)[C@@H]1O)Oc1cccc2ccccc12` (stereo partly shown) [Compound B-6], the EC50 in series [3] (setting [7]) lay in the range of 3.75 to 11.1 µM.

Turning to `CCOC(=O)[C@H](C)NP(=O)(OC[C@H]1O[C@@H](c2ccc3c(N)ncnn23)[C@](C)(F)[C@@H]1O)Oc1ccccc1` (stereo partly shown) [Compound B-7], the EC50 in series [3] (setting [7]) fell in the range of 63 to 73 µM.

On to `CCOC(=O)[C@H](C)NP(=O)(OC[C@H]1O[C@@H](c2ccc3c(N)ncnn23)[C@](C)(F)[C@@H]1O)Oc1cccc2ccccc12` (stereo partly shown) [Compound B-8], for which the EC50 in series [3] (setting [7]) lay in the range of 35 to 60 µM.

With `CCOC(=O)[C@@H](NP(=O)(OC[C@H]1O[C@@](C#N)(c2ccc3c(N)ncnn23)[C@](C)(F)[C@@H]1O)Oc1ccccc1)C(C)C` (stereo partly shown) [Compound C-1], in series [3] (setting [7]), the EC50 was in the range of 67 to 70 µM.

Turning to `CCOC(=O)[C@H](CCSC)NP(=O)(OC[C@H]1O[C@@](C#N)(c2ccc3c(N)ncnn23)[C@](C)(F)[C@@H]1O)Oc1ccccc1` (stereo partly shown) [Compound C-2], in series [3] (setting [7]), the EC50 was in the range of 3.9 to 12 µM.

`CCOC(=O)[C@H](Cc1c[nH]c2ccccc12)NP(=O)(OC[C@H]1O[C@@](C#N)(c2ccc3c(N)ncnn23)[C@](C)(F)[C@@H]1O)Oc1ccccc1` (stereo partly shown) [Compound C-3]: the EC50 in series [3] (setting [7]) fell in the range of 43 to 84 µM.

As for `CCOC(=O)[C@H](Cc1ccccc1)NP(=O)(OC[C@H]1O[C@@](C#N)(c2ccc3c(N)ncnn23)[C@](C)(F)[C@@H]1O)Oc1ccccc1` (stereo partly shown) [Compound C-4], the EC50 in series [3] (setting [7]) lay within 9.8 to 31 µM.

In series [3], `CCOC(=O)[C@@H]1CCCN1P(=O)(OC[C@H]1O[C@@](C#N)(c2ccc3c(N)ncnn23)[C@](C)(F)[C@@H]1O)Oc1ccccc1` (stereo partly shown) [Compound C-5] returned an EC50 of 24 to 28 µM.

Take `CCOC(=O)[C@H](CCS(C)(=O)=O)NP(=O)(OC[C@H]1O[C@@](C#N)(c2ccc3c(N)ncnn23)[C@](C)(F)[C@@H]1O)Oc1ccccc1` (stereo partly shown) [Compound C-6]: the EC50 in series [3] (setting [7]) amounted to 11 µM.

For `CCOC(=O)[C@H](C)NP(=O)(OC[C@H]1O[C@@H](c2cnc3c(N)ncnn23)[C@](C)(F)[C@@H]1O)Oc1ccccc1` (stereo partly shown) [PD-A-8b], the 50% effective concentration (EC50) in series [3] (setting [7]) worked out at 0.68 µM. For the same compound, in series [4], the “efficiency of activation of prodrug to its triphosphate analog, compared with B-7” value is “more than two orders of magnitude more efficient”.

In turn, `C[C@@]1(F)[C@H](O)[C@@H](COP(=O)(O)OP(=O)(O)OP(=O)(O)O)O[C@H]1c1cnc2c(=O)[nH]c(N)nn12` [TP-1] had an IC50 in series [1] of 0.15 µM. Further, in series [2], the IC50 is 0.15 µM and the “fold shift (S282T IC50 vs WT IC50)” value is on record as “(1 fold shift)”.

Regarding `C[C@@]1(F)[C@H](O)[C@@H](COP(=O)(O)OP(=O)(O)OP(=O)(O)O)O[C@@]1(C#N)c1ccc2c(N)ncnn12` [TP-2], it took 0.24 µM to reach half-maximal inhibition in series [1] (IC50). For the same compound, in series [2], it took 1.6 µM to reach half-maximal inhibition (IC50) and the “fold shift (S282T IC50 vs WT IC50)” value is given as “(7 fold shift)”.

On to `C[C@@]1(O)[C@H](O)[C@@H](COP(=O)(O)OP(=O)(O)OP(=O)(O)O)O[C@@]1(C#N)c1ccc2c(N)ncnn12` [triphosphate of (2R,3R,4R,5R)-2-(4-aminopyrrolo[1,2-f][1,2,4]triazin-7-yl)-3,4-dihydroxy-5-(hydroxymethyl)-3-methyl-tetrahydrofuran-2-carbonitrile], for which the “fold shift (S282T IC50 vs WT IC50)” value in series [2] is “WO/2009/132135 (242 fold shift)”. Moreover, the values for the IC50 in series [5] and in series [6] were 0.525 µM and 111 µM, respectively.
